Assay results as given in patent publication US11952364B2, “TRK inhibitors useful as anticancer drugs” (TYLIGAND BIOSCIENCE (SHANGHAI) LIMITED, priority 2018, dated 2024).

Test system: Ba/F3 LMNA-NTRK1-G595R cells
Test: Proliferation of Ba/F3 LMNA-NTRK1-G595R cells (CellTiter-Glo)
Assay type: cell-based
Settings: Mus musculus, BaF3; Table 5; 72 hours
Description: Ba/F3 LMNA-NTRK1-G595R is a stable transgenic cell line constructed by KYinno Biotechnology Co., Ltd. on mouse primary B cell Ba/F3 wherein NTRK1 is highly expressed with a mutation of G at position 595 to R, and fused with LMNA to form LMNA-NTRK1. • [Test method]: Promega's CellTiter-Glo® Luminescent Cell Viability Assay kit was used to evaluate the inhibitory activity of the compounds on the proliferation of Ba/F3 LMNA-NTRK1-G595R cells. • [Instrument]: Spectramax M3 multifunctional microplate reader from Molecular Devices. • [Test materials]: Ba/F3 LMNA-NTRK1-G595R cell line (constructed by KYinno Biotechnology Co., Ltd. (Beijing)), 96-well transparent flat-bottomed black-walled cell culture plate (Corning, cat #3603), RPMI-1640 media (GE, cat #SH30027.01), fetal bovine serum FBS (Thermo Fisher, cat #10099-141), CellTiter-Glo® Luminescent Cell Viability Assay kit (Promega, cat #G7572), PBS (Solarbio, cat #P1020), DMSO (Sigma, cat #D2650). • [Experimental procedure]: When resuscitating Ba/F3 LMNA-NTRK1-G595R cells, the freezing tube was quickly shaken in a 37° C. water bath to melt within 1 minute. The thawed cell suspension was mixed uniformly with RPMI1640 medium containing 10% FBS, centrifuged at 1000 rpm for 5 minutes, and the supernatant discarded. 5 mL of complete medium (RPMI1640 medium with 10% FBS) was taken to resuspend the cell pellets, charged into a cell culture flask with a bottom area of 25 cm^2, and incubated in a cell incubator at 37° C., 95% humidity and 5% CO2. Cells were allowed to passage when the number of cells reached about 10^6 cells/mL. For cell passage, the old cell suspension was directly pipetted evenly, 1/5 of the cell suspension was kept, 4 mL of new complete medium was added, after pipetting evenly, the cell flask was placed in the cell incubator for further culturing. Cell plating was performed when the number of cells reached about 10^6 cells/mL again. For cell plating, 1/5 of the cell suspension was kept for further culturing as in the cell passage method, and the remaining 4/5 of the cell suspension was placed in a 15 mL centrifuge tube, detected for cell viability by Trypan blue exclusion method to ensure that cell viability was above 90%. A cell suspension with a density of 5.56×10^4 viable cells/mL was prepared with complete medium, and 90 μL of such cell suspension was added to a 96-well cell culture plate to obtain the cell density of 5000 viable cells/mL in the cell culture plate. A control group containing no cells, no compound and only complete medium (i.e. culture medium control) and a control group containing no compound but containing cells (i.e. cell control) were set. The cell plate was placed in a cell incubator overnight. The 10 mM compound stock solution in DMSO was first serially diluted with DMSO at a dilution factor of 3.16 times, to obtain 9 concentrations, and the 10th concentration was set as DMSO control without compound. Then, PBS was used to dilute the DMSO solutions of compounds of different concentrations, at a dilution factor of 100 times, so that the DMSO concentration in the compound solution of each concentration was 1%. Finally, 10 μL of each of the above solutions was added to the corresponding cell culture plate, so that the initial compound concentration was 10 μM, with the remaining concentrations being successively diluted at a dilution factor of 3.16 times, and the DMSO content in the cell culture plate was 0.1%. The cell plate was placed in a cell incubator and cultured for 72 hours. For endpoint detection, the CellTiter-Glo reagent was melted, and the cell plate was moved to room temperature to equilibrate for 30 minutes, added with 100 μL of CellTiter-Glo for each well, and shaken on an orbital shaker for 5 minutes to fully lyse the cells. The plate was kept at room temperature for 20 minutes to stabilize the luminescence signal, and the luminescence value of each well was scanned with a multi-functional microplate reader at full wavelength. • [Test samples] […]

| IC50 | Structure (SMILES) |
| --- | --- |
| 3660 nM | O=C(Nc1cnn2ccc(N3CCC[C@@H]3c3cc(F)ccc3F)nc12)N1CC[C@H](O)C1 [LOXO-101, Larotrectinib, reference compound] |
| 3150 nM | CCn1ncc2cc(Oc3ccc(NC(=O)c4ccc(C)n(-c5ccc(F)cc5)c4=O)cc3F)c(-c3cn[nH]c3)cc21 [Example 3, N-(3-fluoro-4-(1-ethyl-6-(1H-pyrazol-4-yl)-1H-indazol-5-yloxy)phenyl)-1-(4-fluorophenyl)-6-methyl-2-oxo-1,2-dihydmpyridine-3-carboxamide] |
| 1440 nM | Cn1ncc2cc(Oc3ccc(NC(=O)c4ccc(C(F)(F)F)n(-c5ccc(F)cc5)c4=O)cc3F)c(-c3cn[nH]c3)cc21 [Example 1, N-(3-fluoro-4-(1-methyl-6-(1H-pyrazol-4-yl)-1H-indazol-5-yloxy)phenyl)-1-(4-fluorophenyl)-6-trifluoromethyl-2-oxo-1,2-dihydmpyridine-3-carboxamide monomethanesulfonate] |
| 4650 nM | Cc1ccc(C(=O)Nc2ccc(Oc3cc4cnn(C(C)C)c4cc3-c3cn[nH]c3)c(F)c2)c(=O)n1-c1ccc(F)cc1 [Example 4, N-(3-fluoro-4-(1-isopropyl-6-(1H-pyrazol-4-yl)-1H-indazol-5-yloxy)phenyl)-1-(4-fluorophenyl)-6-methyl-2-oxo-1,2-dihydmpyridine-3-carboxamide] |
| 747 nM | CC(C)c1ccc(C(=O)Nc2ccc(Oc3cc4cnn(C)c4cc3-c3cn[nH]c3)c(F)c2)c(=O)n1-c1ccc(F)cc1 [Example 6, N-(3-fluoro-4-(1-methyl-6-(1H-pyrazol-4-yl)-1H-indazol-5-yloxy)phenyl)-1-(4-fluorophenyl)-6-isopropyl-2-oxo-1,2-dihydropyridine-3-carboxamide] |
| 752 nM | Cn1ncc2cc(Oc3ccc(NC(=O)c4ccc(C5CC5)n(-c5ccc(F)cc5)c4=O)cc3F)c(-c3cn[nH]c3)cc21 [Example 2, N-(3-fluoro-4-(1-methyl-6-(1H-pyrazol-4-yl)-1H-indazol-5-yloxy)phenyl)-1-(4-fluorophenyl)-6-cyclopropyl-2-oxo-1,2-dihydmpyridine-3-carboxamide] |
| 1010 nM | Cc1ccc(C(=O)Nc2ccc(Oc3cc4cnn(C)c4cc3-c3cn[nH]c3)c(F)c2)c(=O)n1-c1ccc(F)cc1 [Merestinib, reference compound] |
| 799 nM | CCc1ccc(C(=O)Nc2ccc(Oc3cc4cnn(C)c4cc3-c3cn[nH]c3)c(F)c2)c(=O)n1-c1ccc(F)cc1 [Example 5, N-(3-fluoro-4-(1-methyl-6-(1H-pyrazol-4-yl)-1H-indazol-5-yloxy)phenyl)-1-(4-fluorophenyl)-6-ethyl-2-oxo-1,2-dihydropyridine-3-carboxamide] |
